# In patent US20070202141A1, “Synthetic Aggregation Pheromone For Manipulating The Behaviour Of Codling Moth, Cydia Pomonella, Larvae” (PHERO TECH INC., priority 2004, published 2007):
# Test system: female Mastrus ridibundus antenna
# Assay: coupled gas chromatographic-electroantennographic detection (GC-EAD)
# Settings: Porapak Q extract of cocoon-spinning larvae; FIG. 2
# Text: Aliquots of 20 CSLHE of Porapak Q-captured volatiles were subjected to analysis by coupled gas chromatographic-electroantennographic detection (GC-EAD) (Arm et al. 1975) using an antenna of Mastrus ridibundus, a specialist parasitic wasp of C. pomonella prepupae, as the electroantennographic detector. Using antennae from female M. ridibundus, instead of C. pomonella larvae, in these analyses was necessary because the antennae of C. pomonella larvae are too small for electrophysiolocial studies. It was also justified because host-seeking female M. ridibundus respond to the pheromone produced by cocoon-spinning C. pomonella larvae. In these GC-EAD analyses, 10 components (8 visible in FIG. 2) elicited responses from M. ridibundus antennae.
# FIG. 2 illustrates flame ionization detector (FID) and electroantennographic detector (EAD: female Mastrus ridibundus antenna) responses to 10 CSLHE of Porapak Q extract. Chromatography: Hewlett Packard (HP) 5890A gas chromatograph equipped with a fused silica column (30 m×0.32 mm ID) coated with DB-23 (J & W Scientific, Folsom, Calif. 95630, USA); linear flow velocity of carrier gas: 35 cm/sec; injector and FID detector temperature: 240° C.; temperature program: 1 min at 50° C., 10° C./min to 220° C. […]
structure (smiles),measurement,value
"C=C(C)C1CC=C(C)CC1 (single isomer, unassigned; (+)) [(+)-limonene]",electroantennographic detector (EAD) response,not antenally active
